Test results as given in US20080103199A1, “TREATMENT OF PERVASIVE DEVELOPMENTAL DISORDERS” (priority 2006, published 2008).

Experiments:
submissive rats = experiment: Reduction of Submissive Behavior Model (RSBM) of depression, dominant-submissive rat food competition test; type: in vivo, Sprague-Dawley rats; details: for Effect on submissive rat behavior (competitiveness, time spent at feeder): 5 weeks, submissive rat treated
Text: (§1) In this study, the effects of COMPOUND #7 on dominant or submissive behavior in pairs of rats competing for food are examined. It has been shown that anti-manic drugs, including anticonvulsants, decrease dominance and antidepressant drugs reduce submissiveness. This model uses dominant behavior as a model of mania and submissive behavior as a model of depression. The dominance and submissiveness is defined in a competition test and measured as the relative success of two food-restricted rats to gain access to a feeder. Rats are randomly paired and placed in an apparatus allowing them to compete for a food reward. The dominant-submissive relationship develops over a 2-week period. The submissive or dominant animals in pairs selected after 2 weeks of training were treated orally […] (b.i.d.) with COMPOUND #7 at 3 or 30 mg/kg for 5 weeks. The partner of the drug-treated animal was treated with vehicle.
The objective of this study was to determine if COMPOUND #7 is active in the Reduction of Submissive Behavior Model (RSBM) of depression and the Reduction of Dominant Behavior Model (RDBM) of mania. Measurements were made at two doses (3 and 30 mg/kg) after oral twice a day (b.i.d.) administration. The effect of the drug in the RSBM was compared to the effect of fluoxetine (10 mg/kg) and vehicle (0.5% methylcellulose). The effect of the drug in the RDBM was compared with the effect of lithium (100 mg/kg) and vehicle (0.5% methylcellulose). The endpoints measured were the development of a significant reduction of submissive or dominant behavior and its time of onset.
The DSR developed by two rats competing for food uses the apparatus in FIG. 1.
In the experiments described in this report Sprague-Dawley rats weighing 160 to 180 g were used. Testing for the development of a DSR between paired rats begins with the random assignment of rats into pairs. […]
(§2) The test involves placing each member of a pair in opposite chambers of the testing apparatus. […] The test is conducted once a day over a 5-minute period and the time spent on the feeder by each animal is recorded. […]

male mice = experiment: General behavior of male mice, visual observation using a checklist of behaviors; type: in vivo; details: for Number of Mice Affected: Decreased Open Field Activity / Number of Mice Affected: Decreased Startle Reflex / Number of Mice Affected: Extensor Limb Tone (hind limb) / Number of Mice Affected: Impaired Horizontal Screen Performance / Number of Mice Affected: Impaired Visual Placing Reflex / Number of Mice Affected: Locomotor Ataxia / Number of Mice Affected: Loss of Corneal Reflex / Number of Mice Affected: Loss of Pinnal Reflex / Number of Mice Affected: Loss of Righting Reflex / Number of Mice Affected: Passive Response to Handling / Number of Mice Affected: Reduced Skin Plasticity / Number of Mice Affected: Soft Body Tone / Number of Mice Affected: Tail Pinch Response, Absent: N = 3/group
Procedure: The effects of test compound on general behavior were evaluated by visual observation using a checklist of behaviors.

[1] = test system: Crl:CD-1(ICR)BR albino mice; experiment: Isolation-induced aggression model in pairs of mice; type: in vivo
Procedure: The effects of test compound on the aggressive behavior of Crl:CD-1(ICR)BR albino mice were evaluated using the paradigm of isolation-induced aggression.
Male Crl:CD-1(ICR)BR albino mice, fasted overnight, were individually housed for 5 weeks in plastic cages on wood-chip bedding. Subsequently, they were paired for 1 minute daily for several days by placing one individually housed mouse (intruder) into the resident cage of another individually housed mouse (resident). The 1-minute pairing of intruder and resident mouse elicits aggressive behavior. Pairs of mice showing consistent aggressive behavior when paired for 1 minute, during several days were selected as subjects for drug testing.
Test compound (10 to 40 mg/kg p.o.) or the vehicle (methocel; aqueous 0.5%, w/v, hydroxypropyl methylcellulose solution) was administered (10 mL/kg) to the resident and intruder mouse. One and 4 hours after dosing, the mice were paired and the onset of fighting was recorded. […] The duration of fighting during a 1-minute test period was recorded. Mice were re-used in this procedure after several days to a week to allow metabolism and elimination of test compounds. The mice weighed 32 to 49 g at the time of testing and were fasted overnight before dosing. Mice were euthanized with CO2 if they were sick or injured.
Results were expressed as the median onset of fighting and median duration of fighting in vehicle and drug-treated groups. The statistical significance of an increase in the median onset or a reduction in the median duration of fighting in pairs of mice given test compound or its vehicle 1 and 4 hours after administration was determined using the nonparametric Wilcoxon test (p<0.05, 1-tailed).

dominant rats [2] = experiment: Reduction of Dominant Behavior Model (RDBM) of mania, dominant-submissive rat food competition test; type: in vivo, Sprague-Dawley rats; details: 5 weeks, dominant rat treated
Text: as §1, with “The partner of the drug-treated animal was treated with vehicle.” left out
The objective of this study was to determine if COMPOUND #7 is active in the Reduction of Submissive Behavior Model (RSBM) of depression and the Reduction of Dominant Behavior Model (RDBM) of mania. […] The endpoints measured were the development of a significant reduction of submissive or dominant behavior and its time of onset. […]
as §2

dominant rats [3] = details: administered to dominant rats; literature (Malatynska 2002); cited from earlier work

NC(=O)OC[C@@H](O)c1ccccc1Cl [COMPOUND #7]
Effect on submissive rat behavior (competitiveness, time spent at feeder) (submissive rats; 3 mg/kg b.i.d. p.o.): did not have any effect
Effect on submissive rat behavior (competitiveness, time spent at feeder) (submissive rats; 30 mg/kg b.i.d. p.o., vs vehicle-treated): significantly increased competitiveness
Number of Mice Affected: Decreased Open Field Activity (male mice; 40 mg/kg p.o., 1 h): 0
Number of Mice Affected: Decreased Startle Reflex (male mice; 40 mg/kg p.o., 1 h): 0
Number of Mice Affected: Extensor Limb Tone (hind limb) (male mice; 40 mg/kg p.o., 1 h): 0
Number of Mice Affected: Impaired Horizontal Screen Performance (male mice; 40 mg/kg p.o., 1 h): 0
Number of Mice Affected: Impaired Visual Placing Reflex (male mice; 40 mg/kg p.o., 1 h): 0
Number of Mice Affected: Locomotor Ataxia (male mice; 40 mg/kg p.o., 1 h): 0
Number of Mice Affected: Loss of Corneal Reflex (male mice; 40 mg/kg p.o., 1 h): 0
Number of Mice Affected: Loss of Pinnal Reflex (male mice; 40 mg/kg p.o., 1 h): 0
Number of Mice Affected: Loss of Righting Reflex (male mice; 40 mg/kg p.o., 1 h): 0
Number of Mice Affected: Passive Response to Handling (male mice; 40 mg/kg p.o., 1 h): 0
Number of Mice Affected: Reduced Skin Plasticity (male mice; 40 mg/kg p.o., 1 h): 0
Number of Mice Affected: Soft Body Tone (male mice; 40 mg/kg p.o., 1 h): 0
Number of Mice Affected: Tail Pinch Response, Absent (male mice; 40 mg/kg p.o., 1 h): 0
Number of Mice Affected: Decreased Open Field Activity (male mice; 40 mg/kg p.o., 4 h): 0
Number of Mice Affected: Decreased Startle Reflex (male mice; 40 mg/kg p.o., 4 h): 0
Number of Mice Affected: Extensor Limb Tone (hind limb) (male mice; 40 mg/kg p.o., 4 h): 0
Number of Mice Affected: Impaired Horizontal Screen Performance (male mice; 40 mg/kg p.o., 4 h): 0
Number of Mice Affected: Impaired Visual Placing Reflex (male mice; 40 mg/kg p.o., 4 h): 0
Number of Mice Affected: Locomotor Ataxia (male mice; 40 mg/kg p.o., 4 h): 0
Number of Mice Affected: Loss of Corneal Reflex (male mice; 40 mg/kg p.o., 4 h): 0
Number of Mice Affected: Loss of Pinnal Reflex (male mice; 40 mg/kg p.o., 4 h): 0
Number of Mice Affected: Loss of Righting Reflex (male mice; 40 mg/kg p.o., 4 h): 0
Number of Mice Affected: Passive Response to Handling (male mice; 40 mg/kg p.o., 4 h): 0
Number of Mice Affected: Reduced Skin Plasticity (male mice; 40 mg/kg p.o., 4 h): 0
Number of Mice Affected: Soft Body Tone (male mice; 40 mg/kg p.o., 4 h): 0
Number of Mice Affected: Tail Pinch Response, Absent (male mice; 40 mg/kg p.o., 4 h): 0
Number of Mice Affected: Decreased Open Field Activity (male mice; 100 mg/kg p.o., 1 h): 0
Number of Mice Affected: Decreased Startle Reflex (male mice; 100 mg/kg p.o., 1 h): 0
Number of Mice Affected: Extensor Limb Tone (hind limb) (male mice; 100 mg/kg p.o., 1 h): 0
Number of Mice Affected: Impaired Horizontal Screen Performance (male mice; 100 mg/kg p.o., 1 h): 0
Number of Mice Affected: Impaired Visual Placing Reflex (male mice; 100 mg/kg p.o., 1 h): 0
Number of Mice Affected: Locomotor Ataxia (male mice; 100 mg/kg p.o., 1 h): 0
Number of Mice Affected: Loss of Corneal Reflex (male mice; 100 mg/kg p.o., 1 h): 0
Number of Mice Affected: Loss of Pinnal Reflex (male mice; 100 mg/kg p.o., 1 h): 0
Number of Mice Affected: Loss of Righting Reflex (male mice; 100 mg/kg p.o., 1 h): 0
Number of Mice Affected: Passive Response to Handling (male mice; 100 mg/kg p.o., 1 h): 0
Number of Mice Affected: Reduced Skin Plasticity (male mice; 100 mg/kg p.o., 1 h): 0
Number of Mice Affected: Soft Body Tone (male mice; 100 mg/kg p.o., 1 h): 0
Number of Mice Affected: Tail Pinch Response, Absent (male mice; 100 mg/kg p.o., 1 h): 0
Number of Mice Affected: Decreased Open Field Activity (male mice; 100 mg/kg p.o., 4 h): 0
Number of Mice Affected: Decreased Startle Reflex (male mice; 100 mg/kg p.o., 4 h): 0
Number of Mice Affected: Extensor Limb Tone (hind limb) (male mice; 100 mg/kg p.o., 4 h): 0
Number of Mice Affected: Impaired Horizontal Screen Performance (male mice; 100 mg/kg p.o., 4 h): 0
Number of Mice Affected: Impaired Visual Placing Reflex (male mice; 100 mg/kg p.o., 4 h): 0
Number of Mice Affected: Locomotor Ataxia (male mice; 100 mg/kg p.o., 4 h): 0
Number of Mice Affected: Loss of Corneal Reflex (male mice; 100 mg/kg p.o., 4 h): 0
Number of Mice Affected: Loss of Pinnal Reflex (male mice; 100 mg/kg p.o., 4 h): 0
Number of Mice Affected: Loss of Righting Reflex (male mice; 100 mg/kg p.o., 4 h): 0
Number of Mice Affected: Passive Response to Handling (male mice; 100 mg/kg p.o., 4 h): 0
Number of Mice Affected: Reduced Skin Plasticity (male mice; 100 mg/kg p.o., 4 h): 0
Number of Mice Affected: Soft Body Tone (male mice; 100 mg/kg p.o., 4 h): 0
Number of Mice Affected: Tail Pinch Response, Absent (male mice; 100 mg/kg p.o., 4 h): 0
Behavioral or physical signs (general behavior) (male mice; 300 mg/kg p.o.): produced sedation
Number of Mice Affected: Decreased Open Field Activity (male mice; 300 mg/kg p.o., 1 h): 3
Number of Mice Affected: Decreased Startle Reflex (male mice; 300 mg/kg p.o., 1 h): 3
Number of Mice Affected: Extensor Limb Tone (hind limb) (male mice; 300 mg/kg p.o., 1 h): 3
Number of Mice Affected: Impaired Horizontal Screen Performance (male mice; 300 mg/kg p.o., 1 h): 3
Number of Mice Affected: Impaired Visual Placing Reflex (male mice; 300 mg/kg p.o., 1 h): 3
Number of Mice Affected: Locomotor Ataxia (male mice; 300 mg/kg p.o., 1 h): 0
Number of Mice Affected: Loss of Corneal Reflex (male mice; 300 mg/kg p.o., 1 h): 3
Number of Mice Affected: Loss of Pinnal Reflex (male mice; 300 mg/kg p.o., 1 h): 3
Number of Mice Affected: Loss of Righting Reflex (male mice; 300 mg/kg p.o., 1 h): 3
Number of Mice Affected: Passive Response to Handling (male mice; 300 mg/kg p.o., 1 h): 3
Number of Mice Affected: Reduced Skin Plasticity (male mice; 300 mg/kg p.o., 1 h): 3
Number of Mice Affected: Soft Body Tone (male mice; 300 mg/kg p.o., 1 h): 3
Number of Mice Affected: Tail Pinch Response, Absent (male mice; 300 mg/kg p.o., 1 h): 3
Number of Mice Affected: Decreased Open Field Activity (male mice; 300 mg/kg p.o., 4 h): 2
Number of Mice Affected: Decreased Startle Reflex (male mice; 300 mg/kg p.o., 4 h): 0
Number of Mice Affected: Extensor Limb Tone (hind limb) (male mice; 300 mg/kg p.o., 4 h): 2
Number of Mice Affected: Impaired Horizontal Screen Performance (male mice; 300 mg/kg p.o., 4 h): 2
Number of Mice Affected: Impaired Visual Placing Reflex (male mice; 300 mg/kg p.o., 4 h): 0
Number of Mice Affected: Locomotor Ataxia (male mice; 300 mg/kg p.o., 4 h): 2
Number of Mice Affected: Loss of Corneal Reflex (male mice; 300 mg/kg p.o., 4 h): 0
Number of Mice Affected: Loss of Pinnal Reflex (male mice; 300 mg/kg p.o., 4 h): 0
Number of Mice Affected: Loss of Righting Reflex (male mice; 300 mg/kg p.o., 4 h): 0
Number of Mice Affected: Passive Response to Handling (male mice; 300 mg/kg p.o., 4 h): 0
Number of Mice Affected: Reduced Skin Plasticity (male mice; 300 mg/kg p.o., 4 h): 0
Number of Mice Affected: Soft Body Tone (male mice; 300 mg/kg p.o., 4 h): 2
Number of Mice Affected: Tail Pinch Response, Absent (male mice; 300 mg/kg p.o., 4 h): 0
Behavioral or physical signs (general behavior) (male mice; doses up to 100 mg/kg p.o.): No behavioral or physical signs were observed
Onset for initiation of fighting compared to vehicle-treated group ([1]; 20 mg/kg p.o., 4 hours after administration): statistically significantly shorter
Effect on isolation-induced aggressive behavior ([1]; 40 mg/kg p.o., 1 hour after administration, vs vehicle (p<0.05)): inhibited isolation-induced aggressive behavior
Effect on median duration of fighting compared to vehicle-treated groups ([1]; any dose group (10 to 40 mg/kg p.o.), 4 hours after administration): not affected
Effect on performance (competitiveness) of dominant rats (dominant rats [2]; 3 mg/kg b.i.d. p.o.): decreased the performance
Effect on performance (competitiveness) of dominant rats (dominant rats [2]; 30 mg/kg b.i.d. p.o.): significantly increased the competitiveness

CC(N)Cc1ccccc1 (stereo not drawn) [amphetamine, reference compound]
Effect on submissive behavior (submissive rats; treatment of submissive rats, unpublished observation): ineffective

NC(=O)N1c2ccccc2C=Cc2ccccc21 [carbamazepine]
Effect on competitive behavior of dominant rats (dominant rats [3]): significantly reduced competitive behavior

Clc1cccc(Cl)c1N=C1NCCN1 [clonidine]
Effect on competitive behavior of dominant rats (dominant rats [3]): significantly reduced competitive behavior
